Ki data for 22 molecules are collected here from patent publication US9067871B2, “Aminotetraline derivatives, pharmaceutical compositions containing them, and their use in therapy” (ABBVIE DEUTSCHLAND GMBH & CO KG, priority 2009, dated 2015).

Where a name gives a salt, the structure may show the parent alone.

The target of this test is human GlyT1c transporter (Homo sapiens (Human), UniProt P48067). Kind of test: Radioligand binding assay using recombinant CHO cell membranes expressing human GlyT1. Particulars: human GlyT1c-expressing CHO cell membranes; read-out: radioligand binding Kiapp. From the text: 2. Radioligand binding assays using recombinant CHO cell membranes expressing human GlyT1: […]
human GlyT1c transporter, sequence (P48067 whole entry): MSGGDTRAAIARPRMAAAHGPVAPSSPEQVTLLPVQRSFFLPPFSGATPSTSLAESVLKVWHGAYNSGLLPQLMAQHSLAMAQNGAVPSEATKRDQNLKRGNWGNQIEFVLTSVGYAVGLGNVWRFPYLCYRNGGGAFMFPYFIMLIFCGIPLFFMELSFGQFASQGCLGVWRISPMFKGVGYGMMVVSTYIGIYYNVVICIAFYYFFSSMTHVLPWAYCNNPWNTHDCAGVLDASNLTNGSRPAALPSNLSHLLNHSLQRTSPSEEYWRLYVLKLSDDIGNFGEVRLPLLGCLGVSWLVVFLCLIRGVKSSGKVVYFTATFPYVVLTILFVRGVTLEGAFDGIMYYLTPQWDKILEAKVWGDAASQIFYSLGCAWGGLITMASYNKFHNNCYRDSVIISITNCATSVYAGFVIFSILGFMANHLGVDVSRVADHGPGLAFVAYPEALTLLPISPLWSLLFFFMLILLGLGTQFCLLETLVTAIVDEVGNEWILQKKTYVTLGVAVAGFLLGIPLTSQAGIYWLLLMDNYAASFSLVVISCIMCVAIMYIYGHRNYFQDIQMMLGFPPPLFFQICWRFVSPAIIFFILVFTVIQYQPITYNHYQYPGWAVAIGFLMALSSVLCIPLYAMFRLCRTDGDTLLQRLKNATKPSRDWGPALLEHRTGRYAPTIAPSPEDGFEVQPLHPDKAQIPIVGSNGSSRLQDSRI
Consider `CCOC(=O)NC1CCc2ccc(OCCNS(=O)(=O)c3cnn(C)c3)cc2C1Cc1ccccc1Cl` (stereo not shown) [Example 299, {1-(2-Chloro-benzyl)-7-[2-(1-methyl-1H-pyrazole-4-sulfonylamino)-ethoxy]-1,2,3,4-tetrahydro-naphthalen-2-yl}-carbamic acid ethyl ester], for which the Ki was over 10 µM.

With `CNC1CCc2ccc(CNS(=O)(=O)C3CCC3)cc2C1Cc1ccccc1` (single isomer, unassigned; enantiomer 1) [Example 193, Enantiomer 1 of N-{[8-benzyl-7-(methylamino)-5,6,7,8-tetrahydronaphthalen-2-yl]methyl}cyclobutanesulfonamide hydrochloride], the Ki is at most 0.01 µM.

As for `CCNC1CCc2ccc(CCCNS(=O)(=O)CC3CC3)cc2C1Cc1ccccc1` (stereo not shown) [Example 224, N-{3-[8-Benzyl-7-(ethylamino)-5,6,7,8-tetrahydronaphthalen-2-yl]propyl}-1-cyclopropylmethanesulfonamide hydrochloride], the Ki is at most 0.1 µM.

For the molecule `CCCS(=O)(=O)NCCOc1ccc2c(c1)C(Cc1ccc(F)c(Cl)c1)C(N)CC2` (stereo not shown) [Example 120, N-(2-{[7-Amino-8-(3-chloro-4-fluorobenzyl)-5,6,7,8-tetrahydronaphthalen-2-yl]oxy}ethyl)propane-1-sulfonamide hydrochloride], the Ki is at most 0.1 µM.

In the case of `CCCS(=O)(=O)N(CCOc1ccc2c(c1)C(Cc1ccccc1)C(N)CC2)C1CC1` (stereo not shown) [Example 282, Propane-1-sulfonic acid [2-(7-amino-8-benzyl-5,6,7,8-tetrahydro-naphthalen-2-yloxy)ethyl]-cyclopropyl-amide hydrochloride], the Ki was at most 0.1 µM.

Turning to `O=S(=O)(CC1CC1)NCCOc1ccc2c(c1)C(Cc1ccccc1)C(N1CCC(F)C1)CC2` (stereo not shown) [Example 136, N-[2-({8-Benzyl-7-[3-fluoropyrrolidin-1-yl]-5,6,7,8-tetrahydronaphthalen-2-yl}oxy)ethyl]-1-cyclopropylmethanesulfonamide hydrochloride], the Ki was at most 0.1 µM.

For the molecule `CCCS(=O)(=O)N(CCOc1ccc2c(c1)C(Cc1ccccc1)C(NC(=O)OCC)CC2)C1CC1` (stereo not shown) [Example 280], the Ki was at most 10 µM.

`Cn1cnc(S(=O)(=O)NCCOc2ccc3c(c2)C(Cc2cccc(C(F)(F)F)c2)C(N)CC3)c1` (stereo not shown) [Example 165, 1-Methyl-1H-imidazole-4-sulfonic acid {2-[7-amino-8-(3-trifluoromethyl-benzyl)-5,6,7,8-tetrahydro-naphthalen-2-yloxy]-ethyl}-amide hydrochloride]: the Ki is at most 0.01 µM.

Regarding `Cn1cc(S(=O)(=O)NCc2ccc3c(c2)C(Cc2ccccc2)C(N2CCC2)CC3)cn1` (single isomer, unassigned; enantiomer 1) [Example 254, Enantiomer 1 of N-{[7-(azetidin-1-yl)-8-benzyl-5,6,7,8-tetrahydronaphthalen-2-yl]methyl}-1-methyl-1H-pyrazole-4-sulfonamide], the Ki was at most 0.01 µM.

`NC1CCc2ccc(OCCNC(=O)c3ccccc3)cc2C1Cc1ccc(Cl)c(Cl)c1` (stereo not shown) [Example 123, N-(2-{[7-Amino-8-(3,4-dichlorobenzyl)-5,6,7,8-tetrahydronaphthalen-2-yl]oxy}ethyl)benzamide hydrochloride]: the Ki is at most 10 µM.

For the molecule `Cn1cnc(S(=O)(=O)NCCOc2ccc3c(c2)C(Cc2cccc(Cl)c2)C(N2CCC2)CC3)c1` (stereo not shown) [Example 321, 1-Methyl-1H-imidazole-4-sulfonic acid {2-[7-azetidin-1-yl-8-(3-chloro-benzyl)-5,6,7,8-tetrahydro-naphthalen-2-yloxy]-ethyl}-amide hydrochloride], the Ki is at most 0.01 µM.

Consider `CN(CCOc1ccc2c(c1)C(Cc1ccc(Cl)c(Cl)c1)C(N1CCCC1)CC2)S(=O)(=O)c1cnn(C)c1` (stereo not shown) [Example 89, 1-Methyl-1H-pyrazole-4-sulfonic acid {2-[8-(3,4-dichloro-benzyl)-7-pyrrolidin-1-yl-5,6,7,8-tetrahydro-naphthalen-2-yloxy]-ethyl}-methyl-amide hydrochloride], for which the Ki is at most 0.1 µM.

In the case of `CCCS(=O)(=O)NCCCc1ccc2c(c1)C(Cc1ccc(Cl)c(Cl)c1)C(N)CC2` (stereo not shown) [Example 203, N-{3-[7-Amino-8-(3,4-dichlorobenzyl)-5,6,7,8-tetrahydronaphthalen-2-yl]propyl}propane-1-sulfonamide hydrochloride], the Ki was at most 0.01 µM.

For `Cn1cnc(S(=O)(=O)NCCOc2ccc3c(c2)C(Cc2cccc(Cl)c2)C(N2CCCC2)CC3)c1` (stereo not shown) [Example 319, 1-Methyl-1H-imidazole-4-sulfonic acid {2-[8-(3-chloro-benzyl)-7-pyrrolidin-1-yl-5,6,7,8-tetrahydro-naphthalen-2-yloxy]-ethyl}-amide hydrochloride], the Ki is at most 0.1 µM.

For the molecule `NC1CCc2ccc(OCCNS(=O)(=O)CC3CC3)cc2C1Cc1ccccc1Cl` (stereo not shown) [Example 295, N-{2-[7-Amino-8-(2-chloro-benzyl)-5,6,7,8-tetrahydro-naphthalen-2-yloxy]-ethyl}-C-cyclopropyl-methanesulfonamide hydrochloride], the Ki was at most 1 µM.

Turning to `CCCS(=O)(=O)NCCCc1ccc2c(c1)C(Cc1ccccc1Cl)C(NCC)CC2` (stereo not shown) [Example 222, Propane-1-sulfonic acid {3-[8-(2-chloro-benzyl)-7-ethylamino-5,6,7,8-tetrahydronaphthalen-2-yl]-propyl}-amide hydrochloride], the Ki is at most 1 µM.

Consider `NC1CCc2ccc(CCCNS(=O)(=O)CC3CC3)cc2C1Cc1ccc(F)c(F)c1` (stereo not shown) [Example 204, N-{3-[7-Amino-8-(3,4-difluoro-benzyl)-5,6,7,8-tetrahydro-naphthalen-2-yl]-propyl}-C-cyclopropyl-methanesulfonamide hydrochloride], for which the Ki is at most 0.1 µM.

For the molecule `CCNC1CCc2ccc(CNS(=O)(=O)c3cn(C)cn3)cc2C1Cc1ccc(F)cc1` (stereo not shown) [Example 199, 1-Methyl-1H-imidazole-4-sulfonic acid [7-ethylamino-8-(4-fluoro-benzyl)-5,6,7,8-tetrahydro-naphthalen-2-ylmethyl]-amide hydrochloride], the Ki was at most 0.1 µM.

As for `NC1CCc2ccc(CNS(=O)(=O)C3CCC3)cc2C1Cc1cccc(F)c1` (stereo not shown) [Example 184, N-{[7-Amino-8-(3-fluorobenzyl)-5,6,7,8-tetrahydronaphthalen-2-yl]methyl}cyclobutanesulfonamide hydrochloride], the Ki was at most 0.1 µM.

As for `O=S(=O)(CC1CC1)NCCCc1ccc2c(c1)C(Cc1ccccc1)C(N1CCCC1)CC2` (stereo not shown) [Example 266, N-{3-[8-Benzyl-7-(pyrrolidin-1-yl)-5,6,7,8-tetrahydronaphthalen-2-yl]propyl}-1-cyclopropylmethanesulfonamide hydrochloride], the Ki was at most 1 µM.

Consider `CCNC1CCc2ccc(OCCNS(=O)(=O)CC3CC3)cc2C1Cc1cccc(Cl)c1` (stereo not shown) [Example 307, N-{2-[8-(3-Chloro-benzyl)-7-ethylamino-5,6,7,8-tetrahydro-naphthalen-2-yloxy]-ethyl}-C-cyclopropyl-methanesulfonamide hydrochloride], for which the Ki was at most 0.01 µM.

On to `Cn1cc(S(=O)(=O)NCc2ccc3c(c2)C(Cc2ccccc2)C(N)CC3)cn1` (stereo not shown) [Example 172, N-[(7-Amino-8-benzyl-5,6,7,8-tetrahydronaphthalen-2-yl)methyl]-1-methyl-1H-pyrazole-4-sulfonamide hydrochloride], for which the Ki was at most 0.01 µM.
